Tests used:
PIK3CA (human) = PIK3CA (human) (UniProt P42336); test: Inhibition of PIK3CA Kinase Activity
PIK3CD (Human) = PIK3CD (Human) (UniProt O00329); test: Inhibition of PIK3CD Kinase Activity
Chain of PIK3CD (Human) (O00329 whole entry, looked up): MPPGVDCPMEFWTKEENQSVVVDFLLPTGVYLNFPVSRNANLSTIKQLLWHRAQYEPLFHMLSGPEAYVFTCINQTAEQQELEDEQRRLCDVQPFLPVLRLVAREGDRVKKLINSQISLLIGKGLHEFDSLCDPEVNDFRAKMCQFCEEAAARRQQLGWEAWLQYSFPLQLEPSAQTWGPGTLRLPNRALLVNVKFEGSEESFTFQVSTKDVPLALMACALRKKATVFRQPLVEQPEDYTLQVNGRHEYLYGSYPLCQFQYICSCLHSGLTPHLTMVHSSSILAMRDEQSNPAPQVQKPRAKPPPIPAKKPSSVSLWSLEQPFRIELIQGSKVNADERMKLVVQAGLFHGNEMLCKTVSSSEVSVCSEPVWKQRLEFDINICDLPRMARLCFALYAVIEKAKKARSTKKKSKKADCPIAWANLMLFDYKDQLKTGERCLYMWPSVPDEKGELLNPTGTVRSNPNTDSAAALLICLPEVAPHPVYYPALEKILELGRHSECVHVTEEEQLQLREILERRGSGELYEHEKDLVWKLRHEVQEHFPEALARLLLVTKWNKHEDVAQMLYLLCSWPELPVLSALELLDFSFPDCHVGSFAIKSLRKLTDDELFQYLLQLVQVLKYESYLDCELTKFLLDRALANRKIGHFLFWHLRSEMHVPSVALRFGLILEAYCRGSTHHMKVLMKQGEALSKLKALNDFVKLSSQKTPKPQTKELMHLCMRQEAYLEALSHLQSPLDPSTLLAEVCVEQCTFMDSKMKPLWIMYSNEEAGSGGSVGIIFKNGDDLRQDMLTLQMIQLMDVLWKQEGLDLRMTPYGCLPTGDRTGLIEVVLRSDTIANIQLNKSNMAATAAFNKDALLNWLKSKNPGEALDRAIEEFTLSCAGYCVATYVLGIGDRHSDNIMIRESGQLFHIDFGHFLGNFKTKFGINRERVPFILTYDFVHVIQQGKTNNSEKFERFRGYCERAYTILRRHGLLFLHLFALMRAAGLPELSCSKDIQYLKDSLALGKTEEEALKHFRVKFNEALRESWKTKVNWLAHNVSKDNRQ

Chain of PIK3CA (human) (P42336 whole entry, looked up): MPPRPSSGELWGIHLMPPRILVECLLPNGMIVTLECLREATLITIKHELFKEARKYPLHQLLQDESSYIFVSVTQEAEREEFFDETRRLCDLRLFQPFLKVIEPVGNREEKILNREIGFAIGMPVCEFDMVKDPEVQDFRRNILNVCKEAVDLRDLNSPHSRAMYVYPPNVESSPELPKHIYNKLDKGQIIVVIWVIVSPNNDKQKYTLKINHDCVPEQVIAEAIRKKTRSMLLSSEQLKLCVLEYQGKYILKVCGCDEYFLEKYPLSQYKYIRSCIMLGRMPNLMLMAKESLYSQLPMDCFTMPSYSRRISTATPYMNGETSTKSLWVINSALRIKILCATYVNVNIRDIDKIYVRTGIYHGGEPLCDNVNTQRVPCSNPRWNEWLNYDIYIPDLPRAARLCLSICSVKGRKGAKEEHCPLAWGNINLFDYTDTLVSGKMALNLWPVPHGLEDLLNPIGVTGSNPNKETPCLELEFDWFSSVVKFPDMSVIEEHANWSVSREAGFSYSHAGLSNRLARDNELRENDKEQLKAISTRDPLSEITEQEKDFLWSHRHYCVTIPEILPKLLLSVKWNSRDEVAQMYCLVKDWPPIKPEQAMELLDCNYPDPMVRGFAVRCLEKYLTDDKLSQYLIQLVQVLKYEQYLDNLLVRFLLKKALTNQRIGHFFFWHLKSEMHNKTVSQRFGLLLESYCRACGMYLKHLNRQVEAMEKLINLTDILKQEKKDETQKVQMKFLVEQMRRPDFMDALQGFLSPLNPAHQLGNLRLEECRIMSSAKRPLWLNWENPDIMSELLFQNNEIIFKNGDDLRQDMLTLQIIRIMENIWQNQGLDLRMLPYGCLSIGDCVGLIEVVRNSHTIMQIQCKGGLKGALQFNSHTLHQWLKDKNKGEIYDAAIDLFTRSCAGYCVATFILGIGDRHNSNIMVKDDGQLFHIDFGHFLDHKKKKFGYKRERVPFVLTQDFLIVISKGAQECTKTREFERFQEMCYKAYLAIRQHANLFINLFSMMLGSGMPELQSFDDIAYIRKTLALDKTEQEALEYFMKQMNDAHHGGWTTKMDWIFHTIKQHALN

Compound	IC50 (PIK3CA (human)) [nM]	IC50 (PIK3CD (Human)) [nM]
CC(=NNS(=O)(=O)c1cc([N+](=O)[O-])ccc1N(C)CCCN(C)C)c1cnn2ccc(C#N)cc12	100	–
CC(=NNS(=O)(=O)c1cc([N+](=O)[O-])ccc1N(C)CCc1ccccn1)c1cnn2ccc(C#N)cc12	23	–
CC(=NNS(=O)(=O)c1cc([N+](=O)[O-])ccc1C)c1cnn2ccc(Br)cc12.CCCCCC	30	220
CC(=NNS(=O)(=O)c1cc([N+](=O)[O-])ccc1N(C)Cc1ccccn1)c1cnn2ccc(C#N)cc12	4.8	11
CCC(=NNS(=O)(=O)c1cc([N+](=O)[O-])ccc1C)c1cnn2ccc(C#N)cc12	9.8	–
CC(=NN(C)S(=O)(=O)c1cc([N+](=O)[O-])ccc1N(C)Cc1ccccn1)c1cnn2ccc(C#N)cc12	5.2	580
CNCCN(C)c1ccc([N+](=O)[O-])cc1S(=O)(=O)NN=C(C)c1cnn2ccc(C#N)cc12	82	390
CCCCCC.CCN(CC)CCN(C)c1ccc([N+](=O)[O-])cc1S(=O)(=O)NN=C(C)c1cnn2ccc(Br)cc12	230	–
CC(=NNS(=O)(=O)c1cc([N+](=O)[O-])ccc1N(C)CCN)c1cnn2ccc(C#N)cc12.CCCCCC	340	–
CC(=NNS(=O)(=O)c1cc([N+](=O)[O-])ccc1N(C)CCN1CCN(S(C)(=O)=O)CC1)c1cnn2ccc(Br)cc12.CCCCCC	42	–
CC(=NNS(=O)(=O)c1cc([N+](=O)[O-])ccc1N(C)CCCN1CCOCC1)c1cnn2ccc(C#N)cc12	330	–
CC(=NNS(=O)(=O)c1cc([N+](=O)[O-])ccc1N(C)CCc1c[nH]cn1)c1cnn2ccc(C#N)cc12.CCCCCC	33	170
CC(=NNS(=O)(=O)c1cc([N+](=O)[O-])ccc1C)c1cnn2ccc(C#N)cc12	7.3	–
Cc1ccc([N+](=O)[O-])cc1S(=O)(=O)NN=C(c1cnn2ccc(C#N)cc12)C(C)C	39	310
CC(=NNS(=O)(=O)c1cc([N+](=O)[O-])ccc1N(C)Cc1cccnc1)c1cnn2ccc(Br)cc12	53	–
CC(=NNS(=O)(=O)c1cc([N+](=O)[O-])ccc1N(C)CCc1ccncc1)c1cnn2ccc(Br)cc12	44	–

The remaining molecules from weak to strong by IC50 (PIK3CA (human)), led by results:

IC50 (PIK3CA (human)) [nM]	IC50 (PIK3CD (Human)) [nM]	Compound
480	–	CC(=NN(C)S(=O)(=O)c1cc([N+](=O)[O-])ccc1N(C)CCc1ccccn1)c1cnn2ccc(C#N)cc12
460	–	CCN(CC)CCN(C)c1ccc([N+](=O)[O-])cc1S(=O)(=O)N(C)N=C(C)c1cnn2ccc(C#N)cc12
450	–	CC(=NNS(=O)(=O)c1cc([N+](=O)[O-])ccc1N(C)CCCN1CCOCC1)c1cnn2ccc(Br)cc12
330	–	CC(=NNS(=O)(=O)c1cc([N+](=O)[O-])ccc1N(C)CCN(C)C)c1cnc2ccc(Br)cn12
330	660	CC(=NN(C)S(=O)(=O)c1cc([N+](=O)[O-])ccc1N(C)CCN(C)C)c1cnn2ccc(C#N)cc12
320	500	CC(=NNS(=O)(=O)c1cc([N+](=O)[O-])ccc1F)c1cnn2ccc(Br)cc12
300	–	CC(=NNS(=O)(=O)c1cc([N+](=O)[O-])ccc1F)c1cnc2ccc(Br)cn12
240	–	CC(=NN(C)S(=O)(=O)c1cc([N+](=O)[O-])ccc1N(C)CCN1CCCCC1)c1cnn2ccc(C#N)cc12
200	–	CC(=NNS(=O)(=O)c1cc([N+](=O)[O-])ccc1N(C)Cc1ccncc1)c1cnn2ccc(Br)cc12
160	–	CC(=NNS(=O)(=O)c1cc([N+](=O)[O-])ccc1N(C)CCc1c[nH]cn1)c1cnn2ccc(Br)cc12
140	–	CCN(CC)CCN(C)c1ccc([N+](=O)[O-])cc1S(=O)(=O)NN=C(C)c1cnn2ccc(C#N)cc12
92	–	CC(=NNS(=O)(=O)c1cc([N+](=O)[O-])ccc1N(C)CCn1ccnc1)c1cnn2ccc(Br)cc12
90	–	CC(=NNS(=O)(=O)c1cc([N+](=O)[O-])ccc1N(C)CCc1ccccn1)c1cnn2ccc(Br)cc12
57	–	CNCCN(C)c1ccc([N+](=O)[O-])cc1S(=O)(=O)NN=C(C)c1cnn2ccc(Br)cc12
55	–	CC(=NNS(=O)(=O)c1cc([N+](=O)[O-])ccc1N(C)CCN1CCCCC1)c1cnn2ccc(C#N)cc12
51	680	CC(=NNS(=O)(=O)c1cc([N+](=O)[O-])ccc1N(C)CCN(C)C)c1cnn2ccc(C#N)cc12.CCCCCC
49	420	CC(=NNS(=O)(=O)c1cc([N+](=O)[O-])ccc1N(C)CCc1ccncc1)c1cnn2ccc(C#N)cc12
40	330	CC(=NNS(=O)(=O)c1cc([N+](=O)[O-])ccc1N(C)Cc1ccncc1)c1cnn2ccc(C#N)cc12
22	220	CC(=NNS(=O)(=O)c1cc([N+](=O)[O-])ccc1N(C)CCN1CCN(S(C)(=O)=O)CC1)c1cnn2ccc(C#N)cc12
20	860	CC(=NNS(=O)(=O)c1cc([N+](=O)[O-])ccc1N(C)CCn1ccnc1)c1cnn2ccc(C#N)cc12
7.3	230	CC(=NNS(=O)(=O)c1cc([N+](=O)[O-])ccc1N(C)Cc1ccccn1)c1cnn2ccc(Br)cc12

Source: the Kinase Knowledgebase extract (Sharma et al. 2016)
